# ChEMBL document CHEMBL3885881, “DrugMatrix”
# Species on record: Rattus norvegicus
# Assay: DrugMatrix - Regimen: Daily Repeat
# Assay type: toxicity, organism-based, Sprague-Dawley
# Design: regimen Daily Repeat, gender Male, age 6-8 weeks
# Details: in vivo, po, route oral GAVAGE, vehicle .5 % CMC; for BASOPHIL / EOSINOPHIL / ERYTHROCYTE COUNT / HEMATOCRIT / HEMOGLOBIN / LEUKOCYTE COUNT / LYMPHOCYTE / MEAN CORPUSCULAR HEMOGLOBIN / MEAN CORPUSCULAR HEMOGLOBIN CONCENTRATION / MEAN CORPUSCULAR VOLUME / MONOCYTE / NEUTROPHIL / PLATELET COUNT: tissue Blood; for ALANINE AMINOTRANSFERASE / ALBUMIN / ALKALINE PHOSPHATASE / ASPARTATE AMINOTRANSFERASE / BLOOD UREA NITROGEN / CHLORIDE / CHOLESTEROL / CREATINE PHOSPHOKINASE / CREATININE / GLUCOSE / PHOSPHORUS / POTASSIUM / SODIUM / TOTAL BILIRUBIN / TOTAL PROTEIN: tissue Plasma
# [1] = 0 mg/kg, 72 h, dose level Control, time 3 day
# [2] = 0 mg/kg, 120 h, dose level Control, time 5 day
# [3] = 25 mg/kg, 72 h, dose level Low, time 3 day
# [4] = 25 mg/kg, 120 h, dose level Low, time 5 day
smiles,measurement,setting,value
C=C(CC)C(=O)c1ccc(OCC(=O)O)c(Cl)c1Cl [ETHACRYNIC ACID],BASOPHIL,[1],0%
same,EOSINOPHIL,[1],0%
same,ERYTHROCYTE COUNT,[1],6.19 x10E6/uL
same,HEMATOCRIT,[1],36.94%
same,HEMOGLOBIN,[1],14.58 G/DL
same,LEUKOCYTE COUNT,[1],11.54 x10E3/uL
same,LYMPHOCYTE,[1],84.8%
same,MEAN CORPUSCULAR HEMOGLOBIN,[1],23.58 pg
same,MEAN CORPUSCULAR HEMOGLOBIN CONCENTRATION,[1],39.44 G/DL
same,MEAN CORPUSCULAR VOLUME,[1],59.76 fL
same,MONOCYTE,[1],1.4%
same,NEUTROPHIL,[1],13.8%
same,PLATELET COUNT,[1],1068.8 x10E3/uL
same,ALANINE AMINOTRANSFERASE,[1],38.17 u/L
same,ALBUMIN,[1],3.88 G/DL
same,ALKALINE PHOSPHATASE,[1],391.33 u/L
same,ASPARTATE AMINOTRANSFERASE,[1],69.83 u/L
same,BLOOD UREA NITROGEN,[1],15 mg/dL
same,CHLORIDE,[1],104.17 MEQ/L
same,CHOLESTEROL,[1],72.17 mg/dL
same,CREATINE PHOSPHOKINASE,[1],174.33 u/L
same,CREATININE,[1],0.58 mg/dL
same,GLUCOSE,[1],192.67 mg/dL
same,PHOSPHORUS,[1],10.52 mg/dL
same,POTASSIUM,[1],6.8 MEQ/L
same,SODIUM,[1],149.67 MEQ/L
same,TOTAL BILIRUBIN,[1],0.78 mg/dL
same,TOTAL PROTEIN,[1],6.28 G/DL
same,BASOPHIL,[2],0%
same,EOSINOPHIL,[2],0.17%
same,ERYTHROCYTE COUNT,[2],6.72 x10E6/uL
same,HEMATOCRIT,[2],40.02%
same,HEMOGLOBIN,[2],15.83 G/DL
same,LEUKOCYTE COUNT,[2],9.5 x10E3/uL
same,LYMPHOCYTE,[2],87.17%
same,MEAN CORPUSCULAR HEMOGLOBIN,[2],23.57 pg
same,MEAN CORPUSCULAR HEMOGLOBIN CONCENTRATION,[2],39.62 G/DL
same,MEAN CORPUSCULAR VOLUME,[2],59.55 fL
same,MONOCYTE,[2],1.67%
same,NEUTROPHIL,[2],11%
same,PLATELET COUNT,[2],1053.67 x10E3/uL
same,ALANINE AMINOTRANSFERASE,[2],26.33 u/L
same,ALBUMIN,[2],4.02 G/DL
same,ALKALINE PHOSPHATASE,[2],316.67 u/L
same,ASPARTATE AMINOTRANSFERASE,[2],61.33 u/L
same,BLOOD UREA NITROGEN,[2],18.67 mg/dL
same,CHLORIDE,[2],108 MEQ/L
same,CHOLESTEROL,[2],65.17 mg/dL
same,CREATINE PHOSPHOKINASE,[2],161.17 u/L
same,CREATININE,[2],0.75 mg/dL
same,GLUCOSE,[2],177.33 mg/dL
same,PHOSPHORUS,[2],9.72 mg/dL
same,POTASSIUM,[2],6.18 MEQ/L
same,SODIUM,[2],150.5 MEQ/L
same,TOTAL BILIRUBIN,[2],0.68 mg/dL
same,TOTAL PROTEIN,[2],6.55 G/DL
same,BASOPHIL,[3],0%
same,EOSINOPHIL,[3],0%
same,ERYTHROCYTE COUNT,[3],5.63 x10E6/uL
same,HEMATOCRIT,[3],33.93%
same,HEMOGLOBIN,[3],13.5 G/DL
same,LEUKOCYTE COUNT,[3],12.83 x10E3/uL
same,LYMPHOCYTE,[3],81%
same,MEAN CORPUSCULAR HEMOGLOBIN,[3],23.97 pg
same,MEAN CORPUSCULAR HEMOGLOBIN CONCENTRATION,[3],39.8 G/DL
same,MEAN CORPUSCULAR VOLUME,[3],60.23 fL
same,MONOCYTE,[3],2.67%
same,NEUTROPHIL,[3],16.33%
same,PLATELET COUNT,[3],1220 x10E3/uL
same,ALANINE AMINOTRANSFERASE,[3],34.67 u/L
same,ALBUMIN,[3],3.8 G/DL
same,ALKALINE PHOSPHATASE,[3],289.67 u/L
same,ASPARTATE AMINOTRANSFERASE,[3],61.67 u/L
same,BLOOD UREA NITROGEN,[3],16.33 mg/dL
same,CHLORIDE,[3],102.67 MEQ/L
same,CHOLESTEROL,[3],78 mg/dL
same,CREATINE PHOSPHOKINASE,[3],150.67 u/L
same,CREATININE,[3],0.67 mg/dL
same,GLUCOSE,[3],178 mg/dL
same,PHOSPHORUS,[3],11.3 mg/dL
same,POTASSIUM,[3],6.67 MEQ/L
same,SODIUM,[3],148 MEQ/L
same,TOTAL BILIRUBIN,[3],0.5 mg/dL
same,TOTAL PROTEIN,[3],6.23 G/DL
same,BASOPHIL,[4],0%
same,EOSINOPHIL,[4],0%
same,ERYTHROCYTE COUNT,[4],6.67 x10E6/uL
same,HEMATOCRIT,[4],39.93%
same,HEMOGLOBIN,[4],15.7 G/DL
same,LEUKOCYTE COUNT,[4],13.37 x10E3/uL
same,LYMPHOCYTE,[4],91.33%
same,MEAN CORPUSCULAR HEMOGLOBIN,[4],23.6 pg
same,MEAN CORPUSCULAR HEMOGLOBIN CONCENTRATION,[4],39.37 G/DL
same,MEAN CORPUSCULAR VOLUME,[4],59.9 fL
same,MONOCYTE,[4],2.33%
same,NEUTROPHIL,[4],6.33%
same,PLATELET COUNT,[4],1183.33 x10E3/uL
same,ALANINE AMINOTRANSFERASE,[4],25 u/L
same,ALBUMIN,[4],4.03 G/DL
same,ALKALINE PHOSPHATASE,[4],323.33 u/L
same,ASPARTATE AMINOTRANSFERASE,[4],56.67 u/L
same,BLOOD UREA NITROGEN,[4],14.33 mg/dL
same,CHLORIDE,[4],104.33 MEQ/L
same,CHOLESTEROL,[4],77.33 mg/dL
same,CREATINE PHOSPHOKINASE,[4],160 u/L
same,CREATININE,[4],0.6 mg/dL
same,GLUCOSE,[4],169 mg/dL
same,PHOSPHORUS,[4],10.6 mg/dL
same,POTASSIUM,[4],6.23 MEQ/L
same,SODIUM,[4],151 MEQ/L
same,TOTAL BILIRUBIN,[4],0.6 mg/dL
same,TOTAL PROTEIN,[4],6.77 G/DL
